Values of other authors as cited in patent US20080113031A1, “Minicapsule Formulations” (priority 2004, published 2008).

How the values were obtained:
[1] = not given; remark: listed apart in the source

solubility in water | Molecule | activity at pH 2.2 [1]
practically insoluble | COCCOC(=O)C1=C(C)NC(C)=C(C(=O)OC(C)C)C1c1cccc([N+](=O)[O-])c1 (centres unmarked) [Nimodipine] | –
– | PAL from Rhodosporidium toruloides: phenylalanine ammonia-lyase from Rhodosporidium toruloides (protein, UniProt P11544 1-716, looked up) Phenylalanine/tyrosine …: MAPSLDSISHSFANGVASAKQAVNGASTNLAVAGSHLPTTQVTQVDIVEKMLAAPTDSTLELDGYSLNLGDVVSAARKGRPVRVKDSDEIRSKIDKSVEFLRSQLSMSVYGVTTGFGGSADTRTEDAISLQKALLEHQLCGVLPSSFDSFRLGRGLENSLPLEVVRGAMTIRVNSLTRGHSAVRLVVLEALTNFLNHGITPIVPLRGTISASGDLSPLSYIAAAISGHPDSKVHVVHEGKEKILYAREAMALFNLEPVVLGPKEGLGLVNGTAVSASMATLALHDAHMLSLLSQSLTAMTVEAMVGHAGSFHPFLHDVTRPHPTQIEVAGNIRKLLEGSRFAVHHEEEVKVKDDEGILRQDRYPLRTSPQWLGPLVSDLIHAHAVLTIEAGQSTTDNPLIDVENKTSHHGGNFQAAAVANTMEKTRLGLAQIGKLNFTQLTEMLNAGMNRGLPSCLAAEDPSLSYHCKGLDIAAAAYTSELGHLANPVTTHVQPAEMANQAVNSLALISARRTTESNDVLSLLLATHLYCVLQAIDLRAIEFEFKKQFGPAIVSLIDQHFGSAMTGSNLRDELVEKVNKTLAKRLEQTNSYDLVPRWHDAFSFAAGTVVEVLSSTSLSLAAVNAWKVAAAESAISLTRQVRETFWSAASTSSPALSYLSPRTQILYAFVREELGVKARRGDVFLGKQEVTIGSNVSKIYEAIKSGRINNVLLKMLA | no activity
